Experimental data: ChEMBL document CHEMBL1135129, “N-Tetrahydrofuroyl-(L)-phenylalanine derivatives as potent VLA-4 antagonists” (Bioorg Med Chem Lett, 2002)

Tests used:
[1] = molecular target: T1, Integrin alpha-4/beta-1 (Homo sapiens, UniProt P05556+P13612); test: Inhibition of I-VCAM-Ig binding to Very late antigen 4 (VLA-4); assay type: protein-complex assay
[2] = Oral bioavailability in rat (Sprague-Dawley) (dose 2 mg/kg); assay type: ADME, organism-based; settings: in vivo
[3] = Oral bioavailability in rat (Sprague-Dawley) (dose 1 mg/kg i.v.); assay type: ADME, organism-based; settings: in vivo
[4] = molecular target: T1, Integrin alpha-4/beta-1; test: Inhibition of very late antigen-4 alpha4-beta1 (VLA-4), I-VCAM-Ig as radioligand; assay type: protein-complex assay
[5] = Oral bioavailability in rat (Sprague-Dawley); assay type: ADME, organism-based; settings: in vivo

T1 sequence (P05556 whole entry): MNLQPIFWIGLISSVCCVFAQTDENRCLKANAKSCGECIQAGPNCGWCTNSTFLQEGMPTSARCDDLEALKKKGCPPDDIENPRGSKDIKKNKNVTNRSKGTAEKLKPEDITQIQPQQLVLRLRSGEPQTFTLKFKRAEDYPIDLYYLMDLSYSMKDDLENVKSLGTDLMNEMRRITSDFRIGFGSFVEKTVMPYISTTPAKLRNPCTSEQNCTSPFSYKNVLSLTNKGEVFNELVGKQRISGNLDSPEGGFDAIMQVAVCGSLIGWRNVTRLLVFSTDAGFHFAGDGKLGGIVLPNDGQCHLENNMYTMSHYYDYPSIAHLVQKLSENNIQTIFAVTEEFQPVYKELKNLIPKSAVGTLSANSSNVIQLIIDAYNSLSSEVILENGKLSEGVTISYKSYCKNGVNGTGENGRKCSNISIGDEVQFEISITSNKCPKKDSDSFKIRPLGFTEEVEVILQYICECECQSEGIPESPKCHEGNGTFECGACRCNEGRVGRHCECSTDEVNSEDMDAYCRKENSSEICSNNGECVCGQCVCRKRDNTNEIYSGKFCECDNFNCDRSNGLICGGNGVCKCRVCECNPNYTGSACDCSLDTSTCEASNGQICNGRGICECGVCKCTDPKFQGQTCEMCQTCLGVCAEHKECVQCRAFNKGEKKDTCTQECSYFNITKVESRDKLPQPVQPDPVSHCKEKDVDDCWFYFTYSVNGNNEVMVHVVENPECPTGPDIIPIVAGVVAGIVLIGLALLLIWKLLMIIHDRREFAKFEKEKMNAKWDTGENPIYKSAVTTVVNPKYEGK
T1 sequence (P13612 whole entry): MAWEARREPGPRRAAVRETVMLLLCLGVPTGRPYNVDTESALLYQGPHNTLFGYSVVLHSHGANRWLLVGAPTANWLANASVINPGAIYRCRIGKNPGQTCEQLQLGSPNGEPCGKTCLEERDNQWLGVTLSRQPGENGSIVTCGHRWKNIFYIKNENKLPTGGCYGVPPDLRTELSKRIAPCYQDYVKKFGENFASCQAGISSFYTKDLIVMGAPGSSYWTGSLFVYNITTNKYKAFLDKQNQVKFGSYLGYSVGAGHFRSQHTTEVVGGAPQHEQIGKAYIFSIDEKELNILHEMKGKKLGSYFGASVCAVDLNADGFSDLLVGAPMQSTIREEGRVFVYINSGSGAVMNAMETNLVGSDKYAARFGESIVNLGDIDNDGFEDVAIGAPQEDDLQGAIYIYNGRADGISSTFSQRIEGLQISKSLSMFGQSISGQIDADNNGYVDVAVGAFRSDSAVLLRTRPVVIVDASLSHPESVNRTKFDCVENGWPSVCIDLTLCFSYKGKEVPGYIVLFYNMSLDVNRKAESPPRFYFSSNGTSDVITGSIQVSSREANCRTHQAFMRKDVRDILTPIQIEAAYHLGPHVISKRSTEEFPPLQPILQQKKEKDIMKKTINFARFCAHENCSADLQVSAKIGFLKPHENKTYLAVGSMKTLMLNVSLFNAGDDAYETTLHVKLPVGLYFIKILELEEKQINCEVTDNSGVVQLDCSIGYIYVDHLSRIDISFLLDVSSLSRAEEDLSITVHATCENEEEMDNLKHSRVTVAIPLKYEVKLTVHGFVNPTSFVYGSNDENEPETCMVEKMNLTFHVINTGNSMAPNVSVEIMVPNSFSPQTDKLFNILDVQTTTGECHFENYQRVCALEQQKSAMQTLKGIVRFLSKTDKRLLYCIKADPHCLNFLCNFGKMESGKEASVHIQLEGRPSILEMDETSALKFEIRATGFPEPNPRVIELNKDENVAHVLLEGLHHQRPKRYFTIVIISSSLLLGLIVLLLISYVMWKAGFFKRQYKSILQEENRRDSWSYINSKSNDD

Row | SMILES | IC50 [4] | also measured
1 | COc1ccccc1-c1ccc(C[C@@H](NC(=O)[C@@]2(C)CCCO2)C(=O)O)cc1 | – | IC50 [1]: 2.7 nM; bioavailability [2]: 57%; bioavailability [3]: 57%
2 | COc1ccccc1-c1ccc(C[C@H](NC(=O)[C@@]2(C)CCCO2)C(=O)O)cc1 | – | IC50 [1]: 13.7 nM
3 | C[C@]1(C(=O)N[C@@H](Cc2ccc(-c3c(OC4CC4)cccc3OC3CC3)cc2)C(=O)O)CCCO1 | 2.4 nM | –
4 | C[C@]1(C(=O)N[C@@H](Cc2ccc(NC(=O)c3c(Cl)cncc3Cl)cc2)C(=O)O)CCCO1 | 0.2 nM | –
5 | COc1ccccc1-c1ccc(C[C@H](NC(=O)N2CCCN2S(=O)(=O)c2cc(Cl)cc(Cl)c2)C(=O)O)cc1 | 0.88 nM | –
6 | C[C@]1(C(=O)N[C@@H](Cc2ccc(-n3ccn(Cc4ccccc4)c3=O)cc2)C(=O)O)CCCO1 | 4.1 nM | –
7 | COc1cccc(OC)c1-c1ccc(C[C@H](NC(=O)[C@@]2(C)CCCO2)C(=O)O)cc1 | – | IC50 [1]: 0.3 nM; bioavailability [2]: 42%; bioavailability [3]: 42%
8 | COc1ccccc1-c1ccc(C[C@H](NC(=O)C2(C)CCCO2)C(=O)O)cc1 (stereo partly specified) | – | bioavailability [5]: 72%; IC50 [1]: 3.9 nM
9 | COc1ccccc1-c1ccc(C[C@H](NC(=O)C2(C)CCCS2(=O)=O)C(=O)O)cc1 (stereo partly specified) | 1.3 nM | bioavailability [5]: 6%
10 | COc1ccccc1-c1ccc(C[C@H](NC(=O)N2CCCC2)C(=O)O)cc1 | 17 nM | –
11 | COc1ccccc1-c1ccc(C[C@H](NC(=O)C2CCC(=O)N2)C(=O)O)cc1 (stereo partly specified) | 2.8 nM | –

Further lines, with some results ahead:

Row | IC50 [4] | SMILES | also measured
12 | 3.9 nM | C[C@]1(C(=O)N[C@@H](Cc2ccc(-c3ccccc3OC3CC3)cc2)C(=O)O)CCCO1 | bioavailability [2]: 76%; bioavailability [3]: 76%
13 | 63 nM | COc1ccccc1-c1ccc(C[C@H](NC(=O)C2CCCC2)C(=O)O)cc1 | –
14 | 11 nM | COc1ccccc1-c1ccc(C[C@H](NC(=O)[C@@H]2CCCN2)C(=O)O)cc1 | –
15 | 12.9 nM | C[C@]1(C(=O)N[C@@H](Cc2ccc(-n3ccccc3=O)cc2)C(=O)O)CCCO1 | bioavailability [2]: 27%; bioavailability [3]: 27%
16 | 19.3 nM | COc1ccccc1-c1ccc(C[C@H](NC(=O)N2CCC=N2)C(=O)O)cc1 | –
17 | 11 nM | C[C@]1(C(=O)N[C@@H](Cc2ccc(-c3ccccc3C#N)cc2)C(=O)O)CCCO1 | –
18 | 1.7 nM | COc1ccccc1-c1ccc(C[C@H](NC(=O)C2CCCO2)C(=O)O)cc1 (stereo partly specified) | –
19 | 2.1 nM | COc1ccccc1-c1ccc(C[C@H](NC(=O)C2CCCS2(=O)=O)C(=O)O)cc1 (stereo partly specified) | –
20 | 4.9 nM | COc1ccccc1-c1ccc(C[C@H](NC(=O)C2CCCCO2)C(=O)O)cc1 (stereo partly specified) | –
21 | 36 nM | COc1ccccc1-c1ccc(C[C@H](NC(=O)C2CCOC2)C(=O)O)cc1 (stereo partly specified) | –
